# Patent US20140221207A1, “ISOLATED BACTERIAL STRAIN OF THE GENUS BURKHOLDERIA AND PESTICIDAL METABOLITES THEREFROM- FORMULATIONS AND USES” (MARRONE BIO INNOVATIONS, INC., priority 2011, published 2014)
# Values joined by “and” are separate entries in the source; they are usually repeats but may differ in a detail not shown here. Equal values may be shown once. Read-outs that look alike come from different tables or passages of the source.
# Columns and labels:
# Burkholderia A396 = format: cell-based, Burkholderia sp. A396; settings: 72-hour incubation at 25° C
# Procedure: Antibiotic susceptibility of Burkholderia A396 is tested using antibiotic disks on Muller-Hinton medium as described in PML Microbiological's technical data sheet #535.
# B. cepacia complex = settings: 2,621 strains in B. cepacia complex; cited from earlier work
# [1] = system: Chlamydomonas reinhardtii; assay: Control of Chlamydomonas reinhardtii by purified compounds, fluorescence at 680 nm; format: cell-based; settings: 72 hours
# Procedure: Purified compounds from Burkholderia sp. fermentation broth was tested for algaicidal activity against Chlamydomonas reinhardtii. An increasing volume of the purified compounds (20 mg/mL in ethanol) was added to a clear 48 well polystyrene plate with 750 micro liters of the specified algae growing. Each treatment was done in two replicates and the solvent used as a negative control. The plate was closed with a lid and incubated for 72 hours under constant light at room temperature. After 72 hours the fluorescence (at 680 nm) of the suspension in each well was measured using a SpectraMax M2 plate reader, and the reduction in fluorescence compared with the negative control was converted into percent control of algal growth. Each sample was visually compared to the negative control; a well that was visually clearer than the negative control was scored as active. […] Tests were run in two replicates and %. Control was calculated as a reduction of fluorescence at 680 nm compared with the negative control. Each sample was visually compared to the negative control; a well that was visually clearer than the negative control was scored as active.
# Lygus hesperus = assay: 12 well plate treated green beans bioassay, Lygus hesperus late 2nd/early 3rd instar; format: in vivo; settings: green beans dipped in 0.25 mg/mL, scored at 24, 48 and 120 hours
# Procedure: The insecticidal activity of the four compounds, templamide A, templamide B, FR901465 & FR901228 isolated from Burkholderia were tested in a laboratory assay using a 12 well plate with treated green beans bioassay system. The compound was dissolved in 100% ethanol to concentrations of […] and 500 μL of this sample was added to 3.5 mL of water to make a total volume of 4 mL containing 0.25 mg/mL concentration of the compound. Green beans were washed earlier in bleach solution and then sat in water to rinse. Beans were dried before using and then were cut with scissors to fit into wells of 12-well plate. With the help of forceps the beans were dunked into a 15 mL plastic falcon tube containing each treatment and then submerged in treatment for exactly one min. one bean part was put into each well and then individual late 2nd/early 3rd instar Lygus hesperus, were placed in wells with help of brush. Plate sealer was used to cover tray and hole poked into the plate sealer for aeration. The numbers of Lygus/well were counted and plates were placed on brench top. Larvae were scored at 24, 48 and 120 hours after application. […] The positive control used in this testing was Avid (Avemectin) at the rate of 13 μL/10 mL.
# [2] = system: Two Spotted Spidermite (TSM); assay: Control of two spotted spidermite (TSM) in strawberry, field data; format: in vivo; settings: 6 oz./acre
# Procedure: The efficacies of five traditional chemistry-derived and MBI 206 were evaluated for TSM control under field conditions. ‘Strawberry Festival’ transplants were set in the field in plastic mulched beds, 13 inches high and 27 inches across the top, and with 4 ft bed spacing. Overhead irrigation was applied for 10 days after setting to aid in establishment of the transplants. Trickle irrigation was used for the remainder of the experiment. Each 12.5-ft. plot consisted of 20 plants in two ten-plant rows per bed. Plots were infested from a laboratory colony in four sessions with 10 to 20 motile TSM, per plant. Each session accomplished the infestation of one block of the experiment. The experiment consisted of treatments of various rates and schedules of application of miticides, some combined with an adjuvant, and a non-treated check. Treatments were replicated four times in a RCB design. Savey and Acramite treatments were applied before TSM densities reached threshold levels (6 January); the remainder of the treatment programs began 2 wks later. Treatments were applied using a hand-held sprayer with a spray wand outfitted with a nozzle containing a 45-degree core and a number four disc.
# The sprayer was pressurized by CO2, to 40 psi, and calibrated to deliver 100 gal per acre. Pre-treatment samples were taken on Day 1 and sampling continued weekly through 2 wks after the last application of treatments. Samples consisted of ten randomly selected leaflets per plot and were collected from the middle one-third stratum of the plants. Samples were transported to the laboratory where motile and egg TSM were brushed from the leaflets onto rotating sticky discs and counted on 1/10 of the disc surface to estimate average numbers per leaflet. Distinctions could not be made between viable and non-viable eggs, thus total eggs were recorded.
# [3] = 5 μL of sample (20 mg/mL in ethanol) per 750 μL of algae
# [4] = 5 μL of sample per 750 μL of algae
# [5] = 11 μL of sample (20 mg/mL in ethanol) per 750 μL of algae
# [6] = 11 μL of sample per 750 μL of algae
# [7] = 22.5 μL of sample (20 mg/mL in ethanol) per 750 μL of algae
# [8] = 22.5 μL of sample per 750 μL of algae, well visually clearer than negative control scored as active
compound,measurement,setting,value
CC1(C)S[C@@H]2[C@H](NC(=O)[C@H](N)c3ccccc3)C(=O)N2[C@H]1C(=O)O [Ampicillin],Susceptible,Burkholderia A396; disk 10 μg,−
CO/N=C(\C(=O)N[C@@H]1C(=O)N2C(C(=O)O)=C(COC(N)=O)CS[C@H]12)c1ccco1 [Cefuroxime],Susceptible,Burkholderia A396; disk 30 μg,−
O=C(N[C@H](CO)[C@H](O)c1ccc([N+](=O)[O-])cc1)C(Cl)Cl [Chloramphenicol],share of strains susceptible,B. cepacia complex,15%
same,Susceptible,Burkholderia A396; disk 30 μg,++
O=C(O)c1cn(C2CC2)c2cc(N3CCNCC3)c(F)cc2c1=O [Ciprofloxacin],share of strains susceptible,B. cepacia complex,5%
same,Susceptible,Burkholderia A396; disk 5 μg,++
CC[C@H]1OC(=O)[C@H](C)[C@@H](O[C@H]2C[C@@](C)(OC)[C@@H](O)[C@H](C)O2)[C@H](C)[C@@H](O[C@@H]2O[C@H](C)C[C@H](N(C)C)[C@H]2O)[C@](C)(O)C[C@@H](C)C(=O)[C@H](C)[C@@H](O)[C@]1(C)O [Erythromycin],Susceptible,Burkholderia A396; disk 15 μg,−
C[C@@H](O)[C@H]1C(=O)N2C(C(=O)O)=C(SCCN=CN)C[C@H]12 [Imipenem],Susceptible,Burkholderia A396; disk 10 μg,+++
NC[C@H]1O[C@H](O[C@H]2[C@H](O)[C@@H](O[C@H]3O[C@H](CO)[C@@H](O)[C@H](N)[C@H]3O)[C@H](N)C[C@@H]2N)[C@H](O)[C@@H](O)[C@@H]1O [Kanamycin],Susceptible,Burkholderia A396; disk 30 μg,+++
CN(C)[C@@H]1C(O)=C(C(N)=O)C(=O)[C@@]2(O)C(O)=C3C(=O)c4c(O)cccc4[C@@](C)(O)[C@H]3[C@H](O)[C@@H]12 [Oxytetracycline],Susceptible,Burkholderia A396; disk 30 μg,−
CCN1CCN(C(=O)N[C@@H](C(=O)N[C@@H]2C(=O)N3[C@@H]2SC(C)(C)[C@@H]3C(=O)O)c2ccccc2)C(=O)C1=O [Piperacillin],Susceptible,Burkholderia A396; disk 100 μg,+++
[H]/N=C(/N)N[C@H]1[C@H](O)[C@@H](O)[C@H](O[C@@H]2O[C@@H](C)[C@](O)(C=O)[C@H]2O[C@@H]2O[C@@H](CO)[C@H](O)[C@@H](O)[C@@H]2NC)[C@@H](N/C(N)=N\[H])[C@@H]1O [Streptomycin],Susceptible,Burkholderia A396; disk 10 μg,−
CCC(=O)OC(C)/C=C\C(=O)NC1CC(C)C(C/C=C(C)/C=C/C2OC(C)(O)C(O)C(O)(CO)C2O)OC1C (centres unmarked) [Templamide A],% Control,[1]; [3],−67.61%
same,Visual,[1]; [4],Not Active
same,% Control,[1]; [5],−21.16%
same,Visual,[1]; [6],Not Active
same,% Control,[1]; [7],−151.6%
same,Visual,[1]; [8],Not Active
same,mortality,Lygus hesperus,inactive
CCC(=O)OC(C)/C=C\C(=O)NC1CC(C)C(C/C=C(C)/C=C/C2OC(C)(O)C(O)C3(CO3)C2O)OC1C (centres unmarked) [Templamide B],% Control,[1]; [3],95.05%
same,Visual,[1]; [4],Active
same,% Control,[1]; [5],99.34%
same,Visual,[1]; [6],Active
same,% Control,[1]; [7],98.3%
same,Visual,[1]; [8],Active
same,mortality at 250 µg/mL,Lygus hesperus; Lygus hesperus,69.2%
"COC(=O)c1nc(CC(C)C)oc1-c1c[nH]c2ccccc12 [Templazole A, templazole A]",% Control,[1]; [3],99.18% and 98.69%
same,Visual,[1]; [4],Active
same,% Control,[1]; [5],98.73% and 98.31%
same,Visual,[1]; [6],Active
same,% Control,[1]; [7],98.15% and 95.71%
same,Visual,[1]; [8],Active
CN(C)[C@@H]1C(O)=C(C(N)=O)C(=O)[C@@]2(O)C(O)=C3C(=O)c4c(O)cccc4[C@@](C)(O)[C@H]3C[C@@H]12 [Tetracycline],Susceptible,Burkholderia A396; disk 30 μg,−
C[C@@H]1[C@@H](c2ccc(Cl)cc2)SC(=O)N1C(=O)NC1CCCCC1 [hexythiazox],No. egg TSM/leaflet,[2]; Day 1 (pre-treatment sample),2
same,No. egg TSM/leaflet,[2]; Day 9,8.5
same,No. egg TSM/leaflet,[2]; Day 16,15
same,No. egg TSM/leaflet,[2]; Day 22,17
same,No. egg TSM/leaflet,[2]; Day 30,22
same,No. egg TSM/leaflet,[2]; Day 37,71.5
same,No. egg TSM/leaflet,[2]; Day 44,128.5
same,No. egg TSM/leaflet,[2]; Day 52,281.5
same,No. egg TSM/leaflet,[2]; Day 58,393.5
Gentamicin,Susceptible,Burkholderia A396; disk 10 μg,−
Penicillin,Susceptible,Burkholderia A396; disk 10 μg,−
templazole B,% Control,[1]; [3],−102.1%
same,Visual,[1]; [4],Not Active
same,% Control,[1]; [5],52.95%
same,Visual,[1]; [6],Not Active
same,% Control,[1]; [7],−30.79%
same,Visual,[1]; [8],Not Active
